From patent publication US5604095A, “Unsymmetrically linked bisnaphthalimides as antitumor agents” (Cancer Therapy & Research Center, priority 1994, dated 1997)
Like-named read-outs stand apart in the source and are kept apart here.

Legend:
B16 melanoma [1] = assay: In vivo tumor inhibiting activity vs. B16 melanoma in B6D2F1 mice; conditions: q.d. × 5, i.p., day 7
Experimental: B16 Melanoma: B6D2F1 mice received i.p. inocula of B16 murine melanoma brei prepared from B16 tumors growing subcutaneously in mice (day 0). On day 1, rumored mice were treated with drugs or vehicle control; the route of drug administration and schedule were selected as appropriate for the study in question. If dosing information for agents was not available, the maximum tolerated dose (MTD) was determined in initial dose finding experiments in non-rumored mice. In a typical experiment, drugs were given at their MTD and 1/2 MTD doses i.p. on a daily×5 schedule.
The mean survival times of all groups were calculated, and results were expressed as mean survival of treated mice/mean survival of control mice (T/C)×100%. A T/C value of 150 means that the mice in the treated group lived 50% longer than those of the control group; this is sometimes referred to as the increase in life space, or ILS value.
Mice that survived for 60 days were considered long term survivors, or cures, in the B16 model. The universally accepted cut-off for activity in this model, which has been used for years by the National Cancer Institute, is T/C=125. Conventional use of B16 over the years has set the following levels of activity: T/C<125, no activity; T/C=125-150, weak activity; T/C=150-200, modest activity; T/C=200-300, high activity; T/C>300, with long term survivors, excellent, curative activity (Goldin et al., 1981).
Statistics were performed on the data using primarily the log rank p-value test.

[2] = cited from earlier work
[3] = system: MX-1 human breast carcinoma; conditions: literature; cited from earlier work
[4] = system: DLD-2 human colon adenocarcinoma; conditions: literature; cited from earlier work
[5] = system: solid tumor xenografts, human and murine leukemia, doxorubicin resistant cell lines, colon carcinoma cells; conditions: cited from earlier work
LX-1 lung carcinoma = conditions: literature; cited from earlier work
B16 melanoma [6] = conditions: Chen et al., 1993; cited from earlier work

SMILES	Wt. Ch. (Day 7) (B16 melanoma [1]; 5 mg/kg)	Wt. Ch. (Day 7) (B16 melanoma [1]; 10 mg/kg) [%]	water solubility ([2]; reported) [g/L]	in vivo anti-tumor activity against MX-1 [3]	in vivo anti-tumor activity against DLD-2 [4]	toxicity ([5]; literature)	anti-tumor efficacy in vivo ([5]; solid tumor xenografts, leukemia, doxorubicin resistant lines, colon carcinoma)	anti-tumor efficacy in vivo against LX-1 lung carcinoma (LX-1 lung carcinoma)	water solubility ([2]; Sun et al., 1993) [g/L]	activity against B16 melanoma (B16 melanoma [6])
C[C@H](CNCCNC[C@@H](C)N1C(=O)c2cccc3cc([N+](=O)[O-])cc(c23)C1=O)N1C(=O)c2cccc3cc([N+](=O)[O-])cc(c23)C1=O [DMP840, (R,R)-2,2'[1,2-ethanediylbis[imino(1-methyl-2,1-ethanediyl)]]-bis[5-nitro-1H-benz[de]isoquinoline-1,3-(2H)-dione] dimethanesulfonate]	+4.6%	-0.33	3.4	anti-tumor efficacy in vivo	anti-tumor efficacy in vivo	no irreversible toxicities	anti-tumor efficacy in vivo	anti-tumor efficacy in vivo	–	–
CS(=O)(=O)O.O=C1c2cccc3cc([N+](=O)[O-])cc(c23)C(=O)N1CCCCNCCCN1C(=O)c2cccc3cc([N+](=O)[O-])cc(c23)C1=O [XB596]	–	–	–	demonstrated in vivo anti-tumor activity	demonstrated in vivo anti-tumor activity	–	–	–	0.045	ineffective against B16 melanoma
